From patent US20060069132A1, “Azolecarboxamide herbicides” (priority 2004, published 2006)

Experiments:
barnyardgrass [1] = assay: Test B pre-/postemergence herbicide test; format: in vivo, Echinochloa crus-galli
Summary of the method: (§1)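 Visual rating, 0 (no effect) to 100 (complete control), versus untreated controls after 13–15 d in greenhouse. Pre- and postemergence applications (postemergence plants 2–18 cm, 1–4 leaves); flooded paddy arm at 2-leaf stage. Compounds in non-phytotoxic solvent plus surfactant.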

Surinam grass = assay: Test B pre-/postemergence herbicide test; format: in vivo, Urochloa decumbens
Summary of the method: (§2)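 Pre: seeds sown, then sprayed. Post: 1–4-leaf plants (2–18 cm) sprayed at the same time. Paddy: flooded, treated at 2-leaf stage. Formulation: non-phytotoxic solvent with surfactant. Greenhouse 13–15 days; visual 0–100 score relative to controls.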

cocklebur = assay: Test B pre-/postemergence herbicide test; format: in vivo, Xanthium strumarium
Summary of the method: as §1

corn = assay: Test B pre-/postemergence herbicide test; format: in vivo, Zea mays
Summary of the method: as §2

large crabgrass = assay: Test B pre-/postemergence herbicide test; format: in vivo, Digitaria sanguinalis
Summary of the method: as §2

giant foxtail = assay: Test B pre-/postemergence herbicide test; format: in vivo, Setaria faberi
Summary of the method: as §2

lambsquarters = assay: Test B pre-/postemergence herbicide test; format: in vivo, Chenopodium album
Summary of the method: as §2

morningglory = assay: Test B pre-/postemergence herbicide test; format: in vivo, Ipomoea coccinea; conditions: for Morningglory plant response rating: postemergence
Summary of the method: as §1

pigweed = assay: Test B pre-/postemergence herbicide test; format: in vivo, Amaranthus retroflexus
Summary of the method: as §2

blackgrass = assay: Test B postemergence herbicide test; format: in vivo, Alopecurus myosuroides; conditions: for Plant response rating, Blackgrass: visual rating after 13 to 15 days
Summary of the method: (§3)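 Visual ratings, 0 (no effect) to 100 (complete control), made versus controls after 13–15 d greenhouse. Paddy plants treated at 2-leaf stage; postemergence plants at 1- to 4-leaf stage, 2–18 cm tall.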

wheat = assay: Test B postemergence herbicide test; format: in vivo, Triticum aestivum; design: key to Wheat plant response rating: 0 = no effect, 100 = complete control; conditions: for Plant response rating, Wheat: Postemergence, visual rating after 13 to 15 days; for Wheat plant response rating: postemergence
Summary of the method: (§4)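 After treating 2-leaf paddy plants or 2–18 cm postemergence plants (1 to 4 leaves) with formulated chemical, researchers kept them in a greenhouse for 13–15 days. Effects were judged visually versus controls: 0 indicates none, 100 total control.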

wild oat = assay: Test B postemergence herbicide test; format: in vivo, Avena fatua; conditions: for Plant response rating, Oat, Wild: visual rating after 13 to 15 days
Summary of the method: as §4

rice = assay: Test B flooded paddy test; format: in vivo, Oryza sativa; conditions: 1000 g ai/ha, scale 0 to 100 (0 no effect, 100 complete control)
Summary of the method: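 Plants grow to 1- to 4-leaf stage (2–18 cm) for postemergence spraying, or to 2-leaf stage for the paddy test. Formulated compound is applied. Greenhouse holding lasts 13–15 days. Response is scored visually relative to controls, 0 no effect to 100 complete control; a dash means no result.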

[2] = system: small flower umbrella sedge; assay: Test B flooded paddy test; format: in vivo, Cyperus difformis; conditions: 1000 g ai/ha, scale 0 to 100 (0 no effect, 100 complete control)
Summary of the method: as §3

ducksalad = assay: Test B flooded paddy test; format: in vivo, Heteranthera limosa; conditions: 1000 g ai/ha, scale 0 to 100 (0 no effect, 100 complete control)
Summary of the method: as §3

barnyardgrass [3] = assay: Test B flooded paddy test; format: in vivo, Echinochloa crus-galli; conditions: 1000 g ai/ha, scale 0 to 100 (0 no effect, 100 complete control)
Summary of the method: as §3

[4] = 500 g ai/ha, visual rating 0-100, 0 no effect, 100 complete control, preemergence
[5] = Postemergence, 500 g ai/ha, visual rating after 13 to 15 days, scale 0 (no effect) to 100 (complete control)
[6] = postemergence, 125 g ai/ha, visual rating, scale 0 (no effect) to 100 (complete control)
[7] = preemergence, 125 g ai/ha, 0 to 100 scale, 0 is no effect, 100 is complete control
[8] = Postemergence, 500 g ai/ha, scale 0 (no effect) to 100 (complete control)
[9] = 500 g ai/ha, scale 0 (no effect) to 100 (complete control)
[10] = 125 g ai/ha, visual rating, scale 0 (no effect) to 100 (complete control)
[11] = Postemergence, 125 g ai/ha, scale 0 (no effect) to 100 (complete control)
[12] = Preemergence, 500 g ai/ha, scale 0 to 100
[13] = 125 g ai/ha, 0 = no effect, 100 = complete control, preemergence
[14] = 500 g ai/ha, visual rating, 0 = no effect, 100 = complete control, preemergence
[15] = postemergence, 500 g ai/ha, scale 0 to 100, 0 is no effect, 100 is complete control
[16] = 500 g ai/ha, scale 0 to 100, 0 is no effect, 100 is complete control

SMILES: CC(=NO)c1cccc(NC(=O)c2cc(C(C)(C)C)nn2CCF)c1 [Compound 115]
- Plant response rating, Barnyardgrass (barnyardgrass [1]; [4]): 100
- Plant response rating, Barnyardgrass (barnyardgrass [1]; [5]): 50
- Barnyardgrass plant response rating (barnyardgrass [1]; [6]): 10
- Plant response rating, Barnyardgrass (barnyardgrass [1]; [7]): 80
- Plant response rating, Surinam Grass (Surinam grass; [4]): 70
- Plant response rating, Surinam Grass (Surinam grass; [5]): 60
- Surinam Grass plant response rating (Surinam grass; [6]): 60
- Plant response rating, Surinam Grass (Surinam grass; [7]): 70
- Plant response rating, Cocklebur (cocklebur; [4]): 40
- Plant response rating, Cocklebur (cocklebur; [5]): 90
- Cocklebur plant response rating (cocklebur; [6]): 80
- Plant response rating, Cocklebur (cocklebur; [7]): 20
- Plant response rating, Corn (corn; [4]): 30
- Plant response rating, Corn (corn; [7]): 0
- Plant response rating, Crabgrass, Large (large crabgrass; [4]): 100
- Plant response rating, Crabgrass, Large (large crabgrass; [5]): 30
- Crabgrass, Large plant response rating (large crabgrass; [6]): 10
- Plant response rating, Crabgrass, Large (large crabgrass; [7]): 90
- Plant response rating, Foxtail, Giant (giant foxtail; [4]): 100
- Plant response rating, Foxtail, Giant (giant foxtail; [5]): 30
- Foxtail, Giant plant response rating (giant foxtail; [6]): 20
- Plant response rating, Foxtail, Giant (giant foxtail; [7]): 80
- Plant response rating, Lambsquarters (lambsquarters; [4]): 100
- Plant response rating, Lambsquarters (lambsquarters; [5]): 100
- Lambsquarters plant response rating (lambsquarters; [6]): 80
- Plant response rating, Lambsquarters (lambsquarters; [7]): 100
- Plant response rating, Morningglory (morningglory; [4]): 90
- Plant response rating, Morningglory (morningglory; [7]): 30
- Plant response rating, Pigweed (pigweed; [4]): 100
- Plant response rating, Pigweed (pigweed; [5]): 100
- Pigweed plant response rating (pigweed; [6]): 80
- Plant response rating, Pigweed (pigweed; [7]): 80
- Plant response rating, Blackgrass (blackgrass; [8]): 20
- Blackgrass plant response rating (blackgrass; [6]): 10
- Plant response rating, Wheat (wheat; [9]): 30
- Wheat plant response rating (wheat; [10]): 30
- Plant response rating, Oat, Wild (wild oat; [8]): 30
- Oat, Wild plant response rating (wild oat; [6]): 10
- Rice plant response rating (rice; visual rating, 13 to 15 days): 60
- Sedge, Umbrella plant response rating ([2]; visual rating, 13 to 15 days): 90
- Ducksalad plant response rating (ducksalad; visual rating, 13 to 15 days): 90
- Barnyardgrass plant response rating (barnyardgrass [3]; visual rating, 13 to 15 days): 90

SMILES: C=Cn1nc(C(C)(C)C)cc1C(=O)Nc1cccc(C(=O)NCC)c1 [Compound 33]
- Barnyardgrass plant response rating (barnyardgrass [1]; [11]): 20
- Plant response rating, Barnyardgrass (barnyardgrass [1]; [5]): 30
- Barnyardgrass plant response rating (barnyardgrass [1]; [12]): 90
- Plant response rating, Surinam Grass (Surinam grass; [5]): 30
- Surinam Grass plant response rating (Surinam grass; [12]): 80
- Plant response rating, Surinam Grass (Surinam grass; [7]): 30
- Cocklebur plant response rating (cocklebur; [11]): 80
- Plant response rating, Cocklebur (cocklebur; [5]): 100
- Cocklebur plant response rating (cocklebur; [12]): 30
- Corn plant response rating (corn; [12]): 30
- Crabgrass, Large plant response rating (large crabgrass; [11]): 20
- Plant response rating, Crabgrass, Large (large crabgrass; [5]): 30
- Crabgrass, Large plant response rating (large crabgrass; [12]): 100
- Foxtail, Giant plant response rating (giant foxtail; [11]): 30
- Plant response rating, Foxtail, Giant (giant foxtail; [5]): 30
- Foxtail, Giant plant response rating (giant foxtail; [12]): 100
- Plant response rating, Foxtail, Giant (giant foxtail; [7]): 80
- Lambsquarters plant response rating (lambsquarters; [11]): 90
- Plant response rating, Lambsquarters (lambsquarters; [5]): 90
- Lambsquarters plant response rating (lambsquarters; [12]): 100
- Plant response rating, Lambsquarters (lambsquarters; [7]): 100
- Plant response rating, Morningglory (morningglory; [7]): 10
- Plant response rating, Pigweed (pigweed; [5]): 90
- Pigweed plant response rating (pigweed; [12]): 100
- Plant response rating, Pigweed (pigweed; [7]): 100
- Blackgrass plant response rating (blackgrass; [11]): 20
- Plant response rating, Blackgrass (blackgrass; [8]): 20
- Plant response rating, Wheat (wheat; [9]): 30
- Oat, Wild plant response rating (wild oat; [11]): 10
- Plant response rating, Oat, Wild (wild oat; [8]): 10
- Rice plant response rating (rice; visual rating, 13 to 15 days): 60
- Sedge, Umbrella plant response rating ([2]; visual rating, 13 to 15 days): 90
- Ducksalad plant response rating (ducksalad; visual rating, 13 to 15 days): 90
- Barnyardgrass plant response rating (barnyardgrass [3]; visual rating, 13 to 15 days): 90

SMILES: C=CCN(C)C(=O)c1cccc(NC(=O)c2cc(C(C)(C)C)nn2CC)c1 [Compound 285]
- Barnyardgrass plant response rating (0 to 100 scale) (barnyardgrass [1]; [13]): 30
- Plant response rating, Barnyardgrass (barnyardgrass [1]; [14]): 90
- Barnyardgrass plant response rating (barnyardgrass [1]; [6]): 0
- Barnyardgrass plant response rating (barnyardgrass [1]; [15]): 10
- Surinam Grass plant response rating (0 to 100 scale) (Surinam grass; [13]): 10
- Plant response rating, Surinam Grass (Surinam grass; [14]): 70
- Surinam Grass plant response rating (Surinam grass; [6]): 10
- Surinam Grass plant response rating (Surinam grass; [15]): 30
- Cocklebur plant response rating (0 to 100 scale) (cocklebur; [13]): 0
- Plant response rating, Cocklebur (cocklebur; [14]): 0
- Cocklebur plant response rating (cocklebur; [6]): 10
- Cocklebur plant response rating (cocklebur; [15]): 30
- Corn plant response rating (0 to 100 scale) (corn; [13]): 0
- Plant response rating, Corn (corn; [14]): 40
- Corn plant response rating (corn; [6]): 10
- Corn plant response rating (corn; [15]): 10
- Crabgrass, Large plant response rating (0 to 100 scale) (large crabgrass; [13]): 20
- Plant response rating, Crabgrass, Large (large crabgrass; [14]): 70
- Crabgrass, Large plant response rating (large crabgrass; [6]): 0
- Crabgrass, Large plant response rating (large crabgrass; [15]): 20
- Foxtail, Giant plant response rating (0 to 100 scale) (giant foxtail; [13]): 10
- Plant response rating, Foxtail, Giant (giant foxtail; [14]): 80
- Foxtail, Giant plant response rating (giant foxtail; [6]): 30
- Foxtail, Giant plant response rating (giant foxtail; [15]): 50
- Lambsquarters plant response rating (0 to 100 scale) (lambsquarters; [13]): 100
- Plant response rating, Lambsquarters (lambsquarters; [14]): 100
- Lambsquarters plant response rating (lambsquarters; [6]): 40
- Lambsquarters plant response rating (lambsquarters; [15]): 70
- Morningglory plant response rating (0 to 100 scale) (morningglory; [13]): 0
- Plant response rating, Morningglory (morningglory; [14]): 10
- Morningglory plant response rating (morningglory; [10]): 20
- Morningglory plant response rating (morningglory; [16]): 30
- Pigweed plant response rating (0 to 100 scale) (pigweed; [13]): 100
- Plant response rating, Pigweed (pigweed; [14]): 100
- Pigweed plant response rating (pigweed; [6]): 70
- Pigweed plant response rating (pigweed; [15]): 80
- Blackgrass plant response rating (blackgrass; [6]): 30
- Blackgrass plant response rating (blackgrass; [15]): 30
- Wheat plant response rating (wheat; [10]): 30
- Wheat plant response rating (wheat; [16]): 40
- Oat, Wild plant response rating (wild oat; [6]): 40
- Oat, Wild plant response rating (wild oat; [15]): 50
- Rice plant response rating (rice): 80
- Sedge, Umbrella plant response rating [2]: 90
- Ducksalad plant response rating (ducksalad): 90
- Barnyardgrass plant response rating (barnyardgrass [3]): 90
